# Where a name gives a salt, the structure may show the parent alone.
# What was measured:
# [1] = target: human mPGES-1 (Homo sapiens (Human), UniProt O14684); test: mPGES-1 inhibiting activity (microsome fractions, PGE2 by HTRF); type: biochemical; conditions: microsomes from CHO-K1 cells transfected with human mPGES-1; PGH2 1 μM, 4° C., 60 seconds; read-out: mPGES-1 Inhibition IC50
# Outline: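 PGE2 formation read by HTRF after 60 s at 4 °C with 1 μM PGH2 substrate, following 20 min compound preincubation (1% DMSO) with human mPGES-1 microsomes from transfected CHO-K1 cells. Buffer: potassium phosphate, reduced glutathione, pH 7.4; IC50 from activity relative to enzyme-free blank.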
# [2] = tested on: A549 cells; test: Inhibition of PGE2 production in A549 cell (IL-1β stimulated); type: cell-based, human; conditions: IL-1β 5 ng/well, PGE2 in culture medium
# Outline: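 A549 cells preincubated 60 min with compound in RPMI/3% FBS (final DMSO 0.10), then stimulated with IL-1β (5 ng/well) for 24 h at 37 °C. PGE2 measured by HTRF and PGF2α by EIA in medium; IC50 from inhibition relative to stimulated minus unstimulated production.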
# Chain of human mPGES-1 (O14684 whole entry): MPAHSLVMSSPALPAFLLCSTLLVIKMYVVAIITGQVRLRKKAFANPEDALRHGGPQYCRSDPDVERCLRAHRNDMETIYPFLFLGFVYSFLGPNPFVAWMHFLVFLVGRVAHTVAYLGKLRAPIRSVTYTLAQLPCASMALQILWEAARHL
Compound,IC50 [1] [nM],"IC50 ([2]; Homo sapiens, A549, 24 h) [nM]","IC50 ([2]; 24 hours, hydrochloride) [nM]"
"Cc1c(Cl)cccc1NC(=O)c1cc(NC(=O)c2c(F)cccc2Br)cc2[nH]c(N(C)C)nc12 [Example 186, 6-{[(2-Bromo-6-fluorophenyl)carbonyl]amino}-N-(3-chloro-2-methylphenyl)-2-(dimethylamino)-1H-benzimidazole-4-carboxamide hydrochloride]",6.1,13.9,–
"COCc1nc2c(C(=O)Nc3ccccc3)cc(NC(=O)c3ccccc3C(F)(F)F)cc2[nH]1 [Example 214, 2-(Methoxymethyl)-N-phenyl-6-({[2-(trifluoromethyl)phenyl]carbonyl}amino)-1H-benzimidazole-4-carboxamide hydrochloride]",5.2,60.7,–
"COCc1nc2c(C(=O)Nc3cccc(Cl)c3C)cc(NC(=O)c3ccc(C)cc3Cl)cc2[nH]1 [Example 105, N-(3-Chloro-2-methylphenyl)-6-{[(2-chloro-4-methylphenyl)carbonyl]amino}-2-(methoxymethyl)-1H-benzimidazole-4-carboxamide hydrochloride]",8.9,325,–
"CCn1cnc2c(C(=O)Nc3cccc(Cl)c3C)cc(NC(=O)c3ccccc3C(F)(F)F)cc21 [Example 49, N-(3-Chloro-2-methylphenyl)-1-ethyl-6-({[2-(trifluoromethyl)phenyl]carbonyl}amino)-1H-benzimidazole-4-carboxamide]",100,375,–
"Cc1nc2c(C(=O)NCc3ccccc3C(F)(F)F)cc(NC(=O)c3ccccc3C(F)(F)F)cc2o1 [Example 53, 2-Methyl-N-[2-(trifluoromethyl)benzyl]-6-({[2-(trifluoromethyl)phenyl]carbonyl}amino)-1,3-benzoxazole-4-carboxamide]",179,280,–
"O=C(Nc1cc(C(=O)NCc2ccccc2C(F)(F)F)c2nc(C3CCCO3)[nH]c2c1)c1ccccc1C(F)(F)F (stereo in doubt) [Example 67, 2-[(2S)-Tetrahydrofuran-2-yl]-N-[2-(trifluoromethyl)benzyl]-6-({[2-(trifluoromethyl)phenyl]carbonyl}amino)-1H-benzimidazole-4-carboxamide hydrochloride]",11,–,56.4
"Cc1c(Cl)cccc1NC(=O)c1cc(NC(=O)c2cc(Cl)ccc2Cl)cc2[nH]c(C(C)(C)C)nc12 [Example 87, 2-tert-Butyl-N-(3-chloro-2-methylphenyl)-6-{[(2,5-dichlorophenyl)carbonyl]amino}-1H-benzimidazole-4-carboxamide hydrochloride]",5.7,6.9,–
"Cc1c(Cl)cccc1NC(=O)c1cc(NC(=O)c2c(F)cccc2Cl)cc2[nH]c(C3CCCC3)nc12 [Example 126, 6-{[(2-Chloro-6-fluorophenyl)carbonyl]amino}-N-(3-chloro-2-methylphenyl)-2-cyclopentyl-1H-benzimidazole-4-carboxamide hydrochloride]",5.6,13.1,–
"COCc1nc2c(C(=O)Nc3cccc(Cl)c3C)cc(NC(=O)c3c(Cl)cncc3Cl)cc2[nH]1 [Example 246, N-(3-Chloro-2-methylphenyl)-6-{[(3,5-dichloropyridin-4-yl)carbonyl]amino}-2-(methoxymethyl)-1H-benzimidazole-4-carboxamide hydrochloride]",35.9,132,–
"Cc1c(Cl)cccc1NC(=O)c1cc(NC(=O)c2ccccc2C(F)(F)F)cc2[nH]c(N[C@H](CO)C(C)(C)C)nc12 [Example 172, N-(3-Chloro-2-methylphenyl)-2-{[(2S)-1-hydroxy-3,3-dimethylbutan-2-yl]amino}-6-({[2-(trifluoromethyl)phenyl]carbonyl}amino)-1H-benzimidazole-4-carboxamide hydrochloride]",4.5,134,–
"COCc1nc2c(C(=O)Nc3cccc(Cl)c3C)cc(NC(=O)c3cc(F)ccc3Cl)cc2[nH]1 [Example 94, 6-{[(2-Chloro-5-fluorophenyl)carbonyl]amino}-N-(3-chloro-2-methylphenyl)-2-(methoxymethyl)-1H-benzimidazole-4-carboxamide hydrochloride]",9.1,182,–
"COCc1nc2c(C(=O)Nc3ccccc3Cc3ccccc3)cc(NC(=O)c3ccccc3C(F)(F)F)cc2[nH]1 [Example 229, N-(2-Benzylphenyl)-2-(methoxymethyl)-6-({[2-(trifluoromethyl)phenyl]carbonyl}amino)-1H-benzimidazole-4-carboxamide hydrochloride]",2.3,39,–
"COCCc1nc2c(C(=O)Nc3ccc(C)c(Cl)c3)cc(NC(=O)c3cc(Cl)ccc3Cl)cc2[nH]1 [Example 213, N-(3-Chloro-4-methylphenyl)-6-{[(2,5-dichlorophenyl)carbonyl]amino}-2-(2-methoxyethyl)-1H-benzimidazole-4-carboxamide hydrochloride]",0.9,142,–
"Cc1c(Cl)cccc1NC(=O)c1cc(NC(=O)c2ccccc2C(F)(F)F)cc2[nH]c(C3CN(C(=O)OC(C)(C)C)C3)nc12 [Example 61, tert-Butyl 3-{4-[(3-chloro-2-methylphenyl)carbamoyl]-6-({[2-(trifluoromethyl)phenyl]carbonyl}amino)-1H-benzimidazol-2-yl}azetidine-1-carboxylate]",3.2,66.7,–
"Cc1c(Cl)cccc1NC(=O)c1cc(NC(=O)c2ccccc2C(F)(F)F)cc2[nH]cnc12 [Example 3, N-(3-Chloro-2-methylphenyl)-6-({[2-(trifluoromethyl)phenyl]carbonyl}mino)-1H-benzimidazole-4-carboxamide]",1.5,24.6,–
"COCc1nc2c(C(=O)Nc3ccc(C(F)(F)F)cc3)cc(NC(=O)c3ccccc3C(F)(F)F)cc2[nH]1 [Example 28, 2-(Methoxymethyl)-N-[4-(trifluoromethyl)phenyl]-6-({[2-(trifluoromethyl)phenyl]carbonyl}amino)-1H-benzimidazole-4-carboxamide hydrochloride]",3.3,114,–
"Cc1c(Cl)cccc1NC(=O)c1cc(NC(=O)c2ccccc2C(F)(F)F)cc2[nH]c(CC(=O)N3CCCC3)nc12 [Example 132, N-(3-Chloro-2-methylphenyl)-2-[2-oxo-2-(pyrrolidin-1-yl)ethyl]-6-({[2-(trifluoromethyl)phenyl]carbonyl}amino)-1H-benzimidazole-4-carboxamide hydrochloride]",2.2,590,–
"CNCc1nc2c(C(=O)Nc3cccc(Cl)c3C)cc(NC(=O)c3ccccc3C(F)(F)F)cc2[nH]1 [Example 62, N-(3-Chloro-2-methylphenyl)-2-[(methylamino)methyl]-6-({[2-(trifluoromethyl)phenyl]carbonyl}amino)-1H-benzimidazole-4-carboxamide dihydrochloride]",11,51.6,–
"COCc1nc2c(C(=O)Nc3cccc(Cl)c3C)cc(NC(=O)c3ccc(F)cc3Cl)cc2[nH]1 [Example 93, 6-{[(2-Chloro-4-fluorophenyl)carbonyl]amino}-N-(3-chloro-2-methylphenyl)-2-methoxymethyl-1H-benzimidazole-4-carboxamide hydrochloride]",4.2,154,–
"CCOCc1nc2c(C(=O)Nc3cccc(Cl)c3C)cc(NC(=O)c3ccccc3C(F)(F)F)cc2[nH]1 [Example 79, N-(3-Chloro-2-methylphenyl)-2-(ethoxymethyl)-6-({[2-(trifluoromethyl)phenyl]carbonyl}amino)-1H-benzimidazole-4-carboxamide hydrochloride]",15,285,–
"COCCNc1nc2c(C(=O)Nc3cccc(Cl)c3C)cc(NC(=O)c3ccccc3C(F)(F)F)cc2[nH]1 [Example 136, N-(3-Chloro-2-methylphenyl)-2-[(2-methoxyethyl)amino]-6-({[2-(trifluoromethyl)phenyl]carbonyl}amino)-1H-benzimidazole-4-carboxamide hydrochloride]",2.4,61.9,–
"CCc1nc2c(C(=O)NC3CCCCC3)cc(NC(=O)c3ccccc3C(F)(F)F)cc2[nH]1 [Example 18, N-Cyclohexyl-2-ethyl-6-({[2-(trifluoromethyl)phenyl]carbonyl}amino)-1H-benzimidazole-4-carboxamide]",21.6,110,–
"Cc1c(Cl)cccc1NC(=O)c1cc(NC(=O)c2ccccc2C(F)(F)F)cc2[nH]c([C@H]3CCCN3C(=O)OC(C)(C)C)nc12 [Example 70, tert-Butyl (2R)-2-{4-[(3-chloro-2-methylphenyl)carbamoyl]-6-({[2-(trifluoromethyl)phenyl]carbonyl}amino)-1H-benzimidazol-2-yl}pyrrolidine-1-carboxylate]",4.6,147,–
"Cc1c(Cl)cccc1NC(=O)c1cc(NC(=O)c2ccccc2C(F)(F)F)cc2[nH]c(Cl)nc12 [Example 135, 2-Chloro-N-(3-chloro-2-methylphenyl)-6-({[2-(trifluoromethyl)phenyl]carbonyl}amino)-1H-benzimidazole-4-carboxamide]",0.3,87.3,–
"COCc1nc2c(C(=O)Nc3cccc(Cl)c3C)cc(NC(=O)c3cccnc3Cl)cc2[nH]1 [Example 96, N-(3-Chloro-2-methylphenyl)-6-{[(2-chloropyridin-3-yl)carbonyl]amino}-2-(methoxymethyl)-1H-benzimidazole-4-carboxamide hydrochloride]",34,126,–

# From US9216968B2, “Heterocyclic derivative and pharmaceutical drug” (NIPPON SHINYAKU CO., LTD., priority 2011, dated 2015)
